Key:
[1] = Stopped-flow kinetic analysis of superoxide dismutation; format: biochemical; parameters: kcat pH 8.1 / kcat pH 7.4: unit not given here
Source text: Stopped-flow kinetic analysis is an accurate and direct method for quantitatively monitoring the decay rates of superoxide in water.
For the attainment of consistent and accurate measurements all reagents were biologically clean and metal-free. To achieve this, all buffers (Calbiochem) were biological grade, metal-free buffers and were handled with utensils which had been washed first with 0.1N HCl, followed by purified water, followed by a rinse in a 10^−4 M EDTA bath at pH 8, followed by a rinse with purified water and dried at 65° C. for several hours. Dry DMSO solutions of potassium superoxide (Aldrich) were prepared under a dry, inert atmosphere of argon in a Vacuum Atmospheres dry glovebox using dried glassware. The DMSO solutions were prepared immediately before every stopped-flow experiment. A mortar and pestle were used to grind the yellow solid potassium superoxide (~100 mg). The powder was then ground with a few drops of DMSO and the slurry transferred to a flask containing an additional 25 ml of DMSO. The resultant slurry was stirred for ½ h and then filtered. This procedure gave reproducibly ~2 mM concentrations of superoxide in DMSO. These solutions were transferred to a glovebag under nitrogen in sealed vials prior to loading the syringe under nitrogen. It should be noted that the DMSO/superoxide solutions are extremely sensitive to water, heat, air, and extraneous metals. A fresh, pure solution has a very slight yellowish tint.
Water for buffer solutions was delivered from an in-house deionized water system to a Barnstead Nanopure Ultrapure Series 550 water system and then double distilled, first from alkaline potassium permanganate and then from a dilute EDTA solution. For example, a solution containing 1.0 g of potassium permanganate, 2 liters of water and additional sodium hydroxide necessary to bring the pH to 9.0 were added to a 2-liter flask fitted with a solvent distillation head. This distillation will oxidize any trace of organic compounds in the water. The final distillation was carried out under nitrogen in a 2.5-liter flask containing 1500 ml of water from the first still and 1.0×10^−6 M EDTA. This step will remove remaining trace metals from the ultrapure water. To prevent EDTA mist from volatilizing over the reflux arm to the still head, the 40-cm vertical arm was packed with glass beads and wrapped with insulation. This system produces deoxygenated water that can be measured to have a conductivity of less than 2.0 nanomhos/cm^2.
The stopped-flow spectrometer system was designed and manufactured by Kinetic Instruments Inc. (Ann Arbor, Mich.) and was interfaced to a MAC IICX personal computer. The software for the stopped-flow analysis was provided by Kinetics Instrument Inc. and was written in QuickBasic with MacAdios drivers. Typical injector volumes (0.10 ml of buffer and 0.006 ml of DMSO) were calibrated so that a large excess of water over the DMSO solution were mixed together. The actual ratio was approximately 19/1 so that the initial concentration of superoxide in the aqueous solution was in the range 60-120 μM. […]

[2] = polypropylene admixed 2% by weight, melted at 250° C., extracted with pure water
Description: 0.105 g of Compound 38 was added to 4.9 g of cryoground polypropylene. The mixture was melted at 250° C. and extruded into a strand and a fiber. In this manner, a polypropylene modified with a non-proteinaceous catalyst, 2% by weight, was made. The product strand was cryoground and extracted with pure water.

Compound | activity of compound extracted from the strand ([1]; extracted with pure water from polypropylene strand, confirmed by stopped-flow kinetic analysis and HPLC-UV) | kcat pH 7.4 [1] | kcat pH 8.1 [1] | elution of the admixed compound from the cryoground polymer [2]
[Cl-].[Cl-].[Mn+2].c1cc2nc(c1)CN[C@@H]1CCCC[C@H]1NCCN[C@@H]1CCCC[C@H]1NC2 [Compound 38, Manganese (II) dichloro{(4R,9R,14R,19R)-3,10,13,20,26-pentaazatetracyclo [20.3.1.04,9.014,19]hexacosa-1(26),22(23),24-triene}] | Active | 1.64 | 1.19 | ~10%
Manganese(II) dichloro(4R,9R,11R,14R,19R)-3,10,13,20,26-pentaaza-(2R,21R)-dimethyltetracyclo[20.3.1.0^4,9, 0^14,19]hexacose-1(25),22(26),23-triene [Compound 40] |  | 90.00 | 11.00 | 
